Reference: patent US20120135089A1, “E3 LIGASE INHIBITORS” (priority 2009, published 2012)
“Also recorded” adds a separate entry of the source.

Assays:
[1] = test system: p53/Mdm2, p53/MdmX or Mdm2/MdmX complex; assay: co-immunoprecipitation of p53/Mdm2/MdmX complexes in MCF7 cells; type: cell-based, human; settings: 10 μg/ml, 6 hours
Experimental: MCF7 cells were seeded in a 10-cm dish overnight and treated for 6 hours with 10 μg/ml (28 μM) MEL23, 5.3 μg/ml (10 μM) Nutlin-3a or DMSO. […] The experimental conditions of the results shown in FIG. 33B were as follows: FLAG-Mdm2 was transfected into cells and after 24 hours, treated with compounds, and cell lysates were incubated with anti-FLAG M2 antibody for 2 hours, followed by incubation with Protein-A/G sepharose beads for an hour at 4° C. Beads were washed and proteins eluted with 5×SDS and separated on SDS-PAGE.

[2] = test system: U2OS (p53 wild-type) and H1299 (p53 null) cells; assay: combination viability assay, excess over Bliss independence; type: cell-based, human
Experimental: All values were normalized to no treatment. […] Percent cell death was determined by normalization to a no treatment control. Bliss Independence was determined by the formula C=A+B−A*B, where A is treatment with one compound alone and B is treatment with the second compound alone.
Cells were then treated with the indicated concentration of compound. […] Fluorescence intensity was determined using the Victor3 Plate Reader (PerkinElmer). Median percent survival or growth inhibition was calculated and normalized to a no treatment control.
The excess over the predicted Bliss independence was determined by subtracting the predicted Bliss effect for each treatment from the experimentally determined growth inhibition for the same treatment.

full-length Flag-Mdm2 = molecular target: T1, full-length Flag-Mdm2 (Homo sapiens, UniProt Q00987); assay: in vitro ubiquitination assay, full-length Flag-Mdm2; type: biochemical
T1 construct: 100 ng of full-length Flag-Mdm2; made in house; host or cells: Sf9 insect cells (baculovirus; virus a gift from S. Grossman)
T1 sequence (Q00987 whole entry): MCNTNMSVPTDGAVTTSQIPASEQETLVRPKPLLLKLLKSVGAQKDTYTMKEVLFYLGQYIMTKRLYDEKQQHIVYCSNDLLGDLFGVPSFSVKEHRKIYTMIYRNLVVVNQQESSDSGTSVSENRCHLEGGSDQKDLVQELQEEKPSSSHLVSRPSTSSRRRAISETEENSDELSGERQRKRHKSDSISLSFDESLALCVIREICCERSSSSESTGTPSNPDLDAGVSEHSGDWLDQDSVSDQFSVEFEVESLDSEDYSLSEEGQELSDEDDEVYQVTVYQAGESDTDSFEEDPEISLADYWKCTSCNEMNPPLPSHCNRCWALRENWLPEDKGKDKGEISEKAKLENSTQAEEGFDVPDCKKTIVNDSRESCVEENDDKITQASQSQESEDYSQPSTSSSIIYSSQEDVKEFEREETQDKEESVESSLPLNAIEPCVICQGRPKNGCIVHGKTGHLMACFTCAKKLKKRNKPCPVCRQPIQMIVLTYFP
Experimental: These assays were performed with 100 ng of full-length Flag-Mdm2 or 200 ng of Flag-Mdm2/HA-MdmX complexes (100 ng of each protein as each are present in a 1:1 ratio, when purified), ^32P-labeled ubiquitin, UbCH5c, and E1. Following a 30-minute incubation at 37° C., reactions were terminated and resolved on a SDS-PAGE gel followed by autoradiography. PC indicates positive control, and NC indicates negative control with UbCH5C eliminated from the reaction. The gels were quantified by phosphoimaging using ImageQuant software (GE Healthcare Bio-Sciences Corp., Piscataway, N.J.). […] Reactions were performed as in FIG. 11A except 500 ng GST-Mdm2 (residues 400-491) and GST-MdmX (residues 400-490) were used for ubiquitin polymerization. […]
Full-length Mdm2 in vitro ubiquitination reactions were performed in 15 μl reaction mixtures containing 50 mM TrisHC1 pH 7.5, 5 mM MgCl2, 2 mM NaF, 2 mM ATP, 0.6 mM DTT, 50 ng E1 (Boston Biochem, Cat. No. E-305), 1 μg PK-ubiquitin, 50 ng His-UbCH5C, and 100 ng Flag-Mdm2. […] The products were resolved by SDS-PAGE and analyzed by Western blot with anti-p53, anti-Mdm2 SMP14, 2A10, 3G5 mix, or anti-MdmX antibodies. […]
Referring now to FIG. 28b, as shown, Mdm2 in vitro ubiquitination is not inhibited by MEL17 treatment. […] Samples were analyzed by Western blotting with anti-Mdm2 antibodies. […]

With `CCCCn1c(=O)[nH]c(O)c(C2NCCc3c2[nH]c2ccccc32)c1=O` (centres unmarked) [MEL23] the “complex formation (co-immunoprecipitation)” value [1] was “did not inhibit p53-Mdm2 complex formation; also recorded: does not inhibit”, the “synergy of MEL23 with Nutlin-3 on viability” value ([2]; 48 hours, excess over Bliss independence) was “Synergy between MEL23 and Nutlin-3 occurred, but to a lesser extent than the combination of MEL23 and DNA-damaging agents” and the “synergy with DNA damaging agents in p53-null cells” value ([2]; H1299 (p53-null)) was “synergized with DNA damaging agents; also recorded: cooperated with DNA-damaging agents in p53-null cells to a small, yet reproducible, extent”. The “synergy with camptothecin or etoposide on viability” value ([2]; U2OS and H1299, 48 hours, excess over Bliss independence) was “synergistic effect on viability” and the “Mdm2 ligase activity (full-length Mdm2 in vitro ubiquitination)” value (full-length Flag-Mdm2) was “little to no inhibitory effect”.
